# Values of other authors as cited in US7494643B2, “Method and topical composition for the treatment of hyperpigmented skin” (priority 2003, dated 2009).
# Assays:
# melanocytes = conditions: cited from earlier work
# [1] = test system: tyrosinase isolated from black goldfish and standard goldfish; conditions: cited from earlier work
# black goldfish = conditions: ingested by the fish; cited from earlier work
# cultured pigment cells = conditions: cited from earlier work
# mushroom-tyrosinases = conditions: competitive inhibition; cited from earlier work
# human-tyrosinase = biological target: T1, human-tyrosinase (Homo sapiens, UniProt P14679); conditions: competitive inhibition; cited from earlier work
# T1 sequence (P14679 19-529): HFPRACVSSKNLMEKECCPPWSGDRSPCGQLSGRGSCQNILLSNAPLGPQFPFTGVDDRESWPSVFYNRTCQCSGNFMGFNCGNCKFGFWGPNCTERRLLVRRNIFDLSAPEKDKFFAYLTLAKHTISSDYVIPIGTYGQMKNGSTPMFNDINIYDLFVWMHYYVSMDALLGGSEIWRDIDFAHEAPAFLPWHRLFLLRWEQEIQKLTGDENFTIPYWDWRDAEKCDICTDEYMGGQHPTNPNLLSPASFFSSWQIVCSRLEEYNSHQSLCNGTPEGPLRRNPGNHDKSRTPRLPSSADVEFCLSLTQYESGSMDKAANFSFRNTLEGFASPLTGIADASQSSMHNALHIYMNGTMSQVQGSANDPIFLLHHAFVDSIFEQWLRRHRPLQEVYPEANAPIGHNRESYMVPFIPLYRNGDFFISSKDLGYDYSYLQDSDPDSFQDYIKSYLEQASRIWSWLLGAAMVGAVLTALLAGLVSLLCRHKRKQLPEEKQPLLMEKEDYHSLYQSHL
# HIV = conditions: NCI primary screen; cited from earlier work
molecule,measurement,setting,value
Oc1ccc(O)cc1 [hydroquinone],cytotoxicity (destroys the cellular walls of the melanocytes),melanocytes,cytotoxic
O=c1cc(CO)occ1O [Kojic acid],inhibition of tyrosinase,[1],inhibit tyrosinase
same,colour of black goldfish after ingestion,black goldfish,almost yellow-brown
same,suppression of melanogenesis,cultured pigment cells,suppress melanogenesis
OC[C@H]1O[C@@H](Oc2ccc(O)cc2)[C@H](O)[C@@H](O)[C@@H]1O [Arbutin],inhibition of enzyme activity of mushroom tyrosinase,mushroom-tyrosinases,inhibits enzyme activity
same,inhibition of enzyme activity of human tyrosinase,human-tyrosinase,inhibits enzyme activity
Vismiaphenone D,HIV-inhibitory activity,HIV,HIV-inhibitory activity
